Source: the supplement of paper PMC11061612

Experiments:
[1] = compound: C1CC(C1)(C(=O)[O-])C(=O)[O-].N.N.[Pt+2] [Carboplatin]; details: max 10 µM
How it was run: (§1)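 Viability was measured with CellTiter-Glo 2.0 luminescence after 72 hours of dosing at a final DMSO of typically 0.2%, and scaled between blank-well and DMSO-well means. Beforehand, cancer cell lines sat 24 hours at 37°C and 5% CO2 in 1536-well plates in 7.5 μl DMEM/F12 or RPMI with 10% FBS. A non-linear mixed effects model fitted two-parameter logistic curves to the dose responses. The single-agent IC50 comes from these fits.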

[2] = compound: C1CN(CCC1(C(=O)N[C@@H](CCO)C2=CC=C(C=C2)Cl)N)C3=NC=NC4=C3C=CN4 [AZD5363]; details: max 10 µM
How it was run: as §1

[3] = compound: C=CCn1c(=O)c2cnc(Nc3ccc(N4CCN(C)CC4)cc3)nc2n1-c1cccc(C(C)(C)O)n1 [AZD1775]; details: max 3 µM
How it was run: as §1

[4] = compound: CC(=O)Nc1cccc(-n2c(=O)n(C3CC3)c(=O)c3c(Nc4ccc(I)cc4F)n(C)c(=O)c(C)c32)c1 [Trametinib]; details: max 1 µM
How it was run: as §1

[5] = compound: CC(=O)O[C@H]1C(=O)[C@@]2(C)[C@H]([C@H](OC(=O)c3ccccc3)[C@]3(O)C[C@H](OC(=O)[C@H](O)[C@@H](NC(=O)c4ccccc4)c4ccccc4)C(C)=C1C3(C)C)[C@]1(OC(C)=O)CO[C@@H]1C[C@@H]2O [Paclitaxel]; details: max 3 µM
How it was run: as §1

[6] = compound: CC(=O)c1c(C)c2cnc(Nc3ccc(N4CCNCC4)cn3)nc2n(C2CCCC2)c1=O [Palbociclib]; details: max 10 µM
How it was run: as §1

[7] = compound: CC(C)n1c(=O)n(C)c2cnc3cc(F)c(-c4ccc(OCCCN5CCCCC5)nc4)cc3c21 [AZD1390]; details: max 0.3 µM
How it was run: as §1

[8] = compound: CC1(C)CCC(CN2CCN(c3ccc(C(=O)NS(=O)(=O)c4ccc(NCC5CCOCC5)c([N+](=O)[O-])c4)c(Oc4cnc5[nH]ccc5c4)c3)CC2)=C(c2ccc(Cl)cc2)C1 [Venetoclax]; details: max 1 µM
How it was run: as §1

[9] = compound: CC1=C(C(=CC=C1)Cl)NC(=O)C2=CN=C(S2)NC3=CC(=NC(=N3)C)N4CCN(CC4)CCO [Dasatinib]; details: max 2 µM
How it was run: as §1

[10] = compound: CC1=CN2[C@@H](C1)C=NC3=CC(=C(C=C3C2=O)OC)OCCCCCOC4=C(C=C5C(=C4)N=C[C@@H]6CC(=CN6C5=O)C)OC [SG3199]; details: max 0.001 µM
How it was run: as §1

[11] = compound: CCN(CCO)CCCOc1ccc2c(Nc3cc(CC(=O)Nc4cccc(F)c4)[nH]n3)ncnc2c1 [AZD2811]; details: max 1 µM
How it was run: as §1

[12] = compound: CCc1c2c(nc3ccc(O)cc13)-c1cc3c(c(=O)n1C2)COC(=O)[C@]3(O)CC [SN-38]; details: max 0.3 µM
How it was run: as §1

[13] = compound: CN(C)CCCOc1ccc(-c2ccc3ncc4c(c3c2)n(C2CCOCC2)c(=O)n4C)cn1 [AZD0156]; details: max 3 µM
How it was run: as §1

[14] = compound: CN(CC[C@H](CSC1=CC=CC=C1)NC2=C(C=C(C=C2)S(=O)(=O)NC(=O)C3=CC=C(C=C3)N4CCC(CC4)[C@H](C5=CC=CC=C5C6=CC=C(C=C6)Cl)O)S(=O)(=O)C(F)(F)F)CCO [AZD4320]; details: max 1 µM
How it was run: as §1

[15] = compound: COc1cc(Nc2ncc3c(n2)-c2ccc(Cl)cc2C(c2c(F)cccc2OC)=NC3)ccc1C(=O)O [Alisertib]; details: max 10 µM
How it was run: as §1

[16] = compound: COc1cc([C@@H]2c3cc4c(cc3[C@@H](O[C@@H]3O[C@@H]5CO[C@@H](C)O[C@H]5[C@H](O)[C@H]3O)[C@H]3COC(=O)[C@H]23)OCO4)cc(OC)c1O [Etoposide]; details: max 10 µM
How it was run: as §1

[17] = compound: COc1cc2ncnc(Nc3ccc(F)c(Cl)c3)c2cc1OCCCN1CCOCC1 [Gefitinib]; details: max 10 µM
How it was run: as §1

[18] = compound: COc1cccc(OCCCN)c1-c1cc(Nc2cnc(C#N)cn2)n[nH]1 [Prexasertib]; details: max 1 µM
How it was run: as §1

[19] = compound: COc1cccc2c1C(=O)c1c(O)c3c(c(O)c1C2=O)C[C@@](O)(C(=O)CO)C[C@@H]3O[C@H]1C[C@H](N)[C@H](O)[C@H](C)O1 [Doxorubicin]; details: max 1 µM
How it was run: as §1

[20] = compound: COc1nnc2ccc(N3CCC(c4ccc(OCCN5CCN(C)C(=O)[C@H]5C)cc4)CC3)nn12 [AZD5153]; details: max 1 µM
How it was run: as §1

[21] = compound: CS(=O)(=O)CCNCc1ccc(-c2ccc3ncnc(Nc4ccc(OCc5cccc(F)c5)c(Cl)c4)c3c2)o1 [Lapatinib]; details: max 10 µM
How it was run: as §1

[22] = compound: C[C@@H](Nc1cc(F)cc(F)c1)c1cc(C(=O)N(C)C)cc2c(=O)cc(N3CCOCC3)oc12 [AZD8186]; details: max 10 µM
How it was run: as §1

[23] = compound: C[C@@H](Oc1cc(-c2cnn(C3CCNCC3)c2)cnc1N)c1c(Cl)ccc(F)c1Cl [Crizotinib]; details: max 10 µM
How it was run: as §1

[24] = compound: C[C@@H](c1ccc2nccn2c1)n1nnc2ncc(-c3cnn(C)c3)nc21 [Savolitinib]; details: max 1 µM
How it was run: as §1

[25] = compound: C[C@@H]1COCCN1C2=NC(=NC(=C2)C3(CC3)[S@](=N)(=O)C)C4=C5C=CNC5=NC=C4 [AZD6738]; details: max 10 µM
How it was run: as §1

[26] = compound: Cc1c2c(nn1C)CSCc1cc(n(C)n1)CSc1cc(c3ccccc3c1)OCCCc1c(C(=O)O)n(C)c3c-2c(Cl)ccc13 [AZD5991]; details: max 1 µM
How it was run: as §1

[27] = compound: Cc1cc2ncnn2cc1Nc1ncc2c(n1)n(C1CCOCC1)c(=O)n2C [AZD7648]; details: max 10 µM
How it was run: as §1

[28] = compound: Cc1nc(-c2cn3c(n2)-c2ccc(-c4cnn(C(C)(C)C(N)=O)c4)cc2OCC3)n(C(C)C)n1 [Taselisib]; details: max 10 µM
How it was run: as §1

[29] = compound: Cn1cnc2c(F)c(Nc3ccc(Br)cc3Cl)c(C(=O)NOCCO)cc21 [Selumetinib]; details: max 10 µM
How it was run: as §1

[30] = compound: N#Cc1cnc(Nc2cc(NC[C@H]3CNCCO3)c(C(F)(F)F)cn2)cn1 [SRA737]; details: max 10 µM
How it was run: as §1

[31] = compound: NC1(c2ccc(-c3nc4ccn5c(=O)[nH]nc5c4cc3-c3ccccc3)cc2)CCC1 [MK-2206]; details: max 10 µM
How it was run: as §1

[32] = compound: Nc1ccn([C@@H]2O[C@H](CO)[C@@H](O)C2(F)F)c(=O)n1 [Gemcitabine]; details: max 0.3 µM
How it was run: as §1

[33] = compound: O=C(Nc1ccc2[nH]nc(-c3ccncc3)c2c1)[C@@H]1CCN(CC(=O)N2CCN(c3ccc(-c4ncccn4)cc3)CC2)C1; details: max 5 µM
How it was run: as §1

[34] = compound: O=C(c1cc(Cc2n[nH]c(=O)c3ccccc23)ccc1F)N1CCN(C(=O)C2CC2)CC1 [Olaparib]; details: max 10 µM
How it was run: as §1

[35] = compound: O=c1[nH]cc(F)c(=O)[nH]1 [5-Fluorouracil]; details: max 20 µM
How it was run: as §1

Cell Line	IC50, cell viability 72 h [1] [nM]	IC50, cell viability 72 h [2] [nM]	IC50, cell viability 72 h [3] [nM]	IC50, cell viability 72 h [4] [nM]	IC50, cell viability 72 h [5] [nM]	IC50, cell viability 72 h [6] [nM]	IC50, cell viability 72 h [7] [nM]	IC50, cell viability 72 h [8] [nM]	IC50, cell viability 72 h [9] [nM]	IC50, cell viability 72 h [10] [nM]	IC50, cell viability 72 h [11] [nM]	IC50, cell viability 72 h [12] [nM]	IC50, cell viability 72 h [13] [nM]	IC50, cell viability 72 h [14] [nM]	IC50, cell viability 72 h [15] [nM]	IC50, cell viability 72 h [16] [nM]	IC50, cell viability 72 h [17] [nM]	IC50, cell viability 72 h [18] [nM]	IC50, cell viability 72 h [19] [nM]	IC50, cell viability 72 h [20] [nM]	IC50, cell viability 72 h [21] [nM]	IC50, cell viability 72 h [22] [nM]	IC50, cell viability 72 h [23] [nM]	IC50, cell viability 72 h [24] [nM]	IC50, cell viability 72 h [25] [nM]	IC50, cell viability 72 h [26] [nM]	IC50, cell viability 72 h [27] [nM]	IC50, cell viability 72 h [28] [nM]	IC50, cell viability 72 h [29] [nM]	IC50, cell viability 72 h [30] [nM]	IC50, cell viability 72 h [31] [nM]	IC50, cell viability 72 h [32] [nM]	IC50, cell viability 72 h [33] [nM]	IC50, cell viability 72 h [34] [nM]	IC50, cell viability 72 h [35] [nM]
CAPAN-1 (Pancreatic Carcinoma)	> 10000	> 10000	1230	349	188	> 10000	> 300	> 1000	> 2000	> 1	> 1000	38.8	> 3000	> 1000	> 10000	> 10000	> 10000	485	> 1000	> 1000	> 10000	> 10000	> 10000	> 1000	> 10000	> 1000	> 10000	> 10000	> 10000	> 10000	> 10000	130	2790	> 10000	> 20000
EN (Endometrial Carcinoma)	> 10000	5500	770	> 1000	798	> 10000	> 300	> 1000	> 2000	> 1	947	> 300	> 3000	> 1000	3670	> 10000	> 10000	41.3	> 1000	> 1000	> 10000	> 10000	> 10000	> 1000	8640	> 1000	> 10000	2730	> 10000	> 10000	8080	> 300	> 5000	> 10000	> 20000
